Legend:
[1] = tested on: sensitized guinea-pigs; conditions: intravenous administration; cited from earlier work
[2] = Skin permeation of CBD formulation in Franz-type diffusion cell; assay type: in vitro ADME
Method: Dermatomed skin from a single donor was mounted in a Franz-type diffusion cell (0.55 cm^2 receptor fluid exposure surface area) and dosed with 5 ul of CBD formulated in an mixture of a volatile solvent (hexylmethyldisiloxane/polymethylsiloxane—93% w/w), and residual solvent (arlamol E—2% w/w) at a concentration of 5.0% (w/w; 35.5 mg/ml). Following dosing, receptor phase samples were collected at 4, 10, 24 and 48 hours; after which the study was terminated.
The residual formulation was removed by tape stripping and the epidermis and dermis separated by blunt dissection. The levels of CBD in the epidermis, dermis, and receptor fluid samples were then analyzed using a bioanalytical method with LC-MS/MS detection.

[3] = tested on: rats; conditions: injected into rats; cited from earlier work
[4] = biological target: human vanilloid receptor type 1 (VR1) (Homo sapiens, UniProt Q8NER1); conditions: in vitro; cited from earlier work
[5] = tested on: anandamide; conditions: in vitro; cited from earlier work
[6] = 5.0% w/w CBD formulation, 48-hour period
[7] = 5 ul of 5.0% w/w CBD formulation, over the 48-hour exposure period
[8] = following application of CBD mixture, 48 hours

Chain of human vanilloid receptor type 1 (VR1) (Q8NER1 whole entry): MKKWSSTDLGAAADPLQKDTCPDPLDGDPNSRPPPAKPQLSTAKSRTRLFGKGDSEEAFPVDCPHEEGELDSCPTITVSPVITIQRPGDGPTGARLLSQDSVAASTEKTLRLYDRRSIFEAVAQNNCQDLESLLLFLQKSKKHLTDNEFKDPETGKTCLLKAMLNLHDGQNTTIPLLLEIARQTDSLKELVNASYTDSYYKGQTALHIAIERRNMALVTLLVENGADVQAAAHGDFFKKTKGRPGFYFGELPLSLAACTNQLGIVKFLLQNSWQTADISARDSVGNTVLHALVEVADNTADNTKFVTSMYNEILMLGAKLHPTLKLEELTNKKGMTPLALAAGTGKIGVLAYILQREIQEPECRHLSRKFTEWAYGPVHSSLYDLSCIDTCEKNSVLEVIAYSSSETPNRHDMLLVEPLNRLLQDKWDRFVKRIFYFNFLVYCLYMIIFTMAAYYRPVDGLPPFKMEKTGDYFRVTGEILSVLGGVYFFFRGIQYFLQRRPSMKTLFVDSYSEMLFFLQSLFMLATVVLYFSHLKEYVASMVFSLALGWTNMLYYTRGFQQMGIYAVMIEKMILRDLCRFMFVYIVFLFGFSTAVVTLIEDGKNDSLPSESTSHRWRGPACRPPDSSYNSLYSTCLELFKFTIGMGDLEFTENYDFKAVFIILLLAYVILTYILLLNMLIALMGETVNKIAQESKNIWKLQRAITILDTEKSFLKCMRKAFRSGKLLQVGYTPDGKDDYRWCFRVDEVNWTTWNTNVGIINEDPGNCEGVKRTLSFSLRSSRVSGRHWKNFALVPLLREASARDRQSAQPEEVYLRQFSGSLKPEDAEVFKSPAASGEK

C=C(C)C1CCC(C)=CC1c1c(O)cc(CCCCC)cc1O (centres unmarked) [CBD, 2-[3-methyl-6-(1-methylethenyl)-2-cyclohexen-1-yl]-5-pentyl-1,3-benzenediol]
effect on airway obstruction [1]: reduced airway obstruction
dermal deposition of CBD [2, 6]: 4.54 % of the applied dose
epidermal deposition of CBD [2, 6]: 13.17 % of the applied dose
CBD in the receptor phase (skin permeation), amount per area [2, 7]: < 278 ng/cm^2
CBD in the receptor phase (skin permeation), percent of applied dose [2, 7]: less than 0.081%
dermis concentration per area [2, 8]: 8,408 ng/cm^2
dermis concentration per tissue weight [2, 8]: 1,933 ng/g of tissue
dermis concentration per volume [2, 8]: ~1,933 ng/mL
effect on cardiac inflammation [3]: attenuated cardiac inflammation
effect on human vanilloid receptor type 1 (VR1) [4]: stimulate
effect on anandamide [5]: inhibit
